Measured values taken from patent publication US20250074911A1, “MACROCYCLIC BTK INHIBITORS” (Crossfire Oncology Holding B.V., priority 2021, published 2025).
Several values for one entry are separate records, joined by “and”; a condition that tells them apart may be missing. Identical values can stand only once.

Tests used:
[1] = system: wt-REC-1 mantle cell lymphoma cells; test: Cell proliferation assay wt-REC-1 (ATPlite, 72 hours); type: cell-based; conditions: 72 h; read-out: IC50 wt-REC-1
Summary of the method: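 Luminescent viability read over 72 h, start-of-incubation signal recorded separately to separate growth from cell death. Percentage growth referenced to compound-free 0.3% DMSO wells; IC50 from 4-parameter logistic fit.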

BTK T474I = BTK T474I (Homo sapiens (Human), UniProt Q06187, T474I); test: Binding kinetics measurements (Surface Plasmon Resonance) on BTK T474I; conditions: for Kd: binding affinity by Surface Plasmon Resonance (SPR); for Tau (h) BTK T474I (Act): target residence time, SPR
Protocol: (§1) Binding kinetics measurements on wt-BTK, BTK […], BTK […], BTK […] and BTK […] (Surface Plasmon Resonance) Streptavidin-coated chips (Cat. No. BR100531), disposables and maintenance kits for Biacore were purchased from Cytiva (Eindhoven, The Netherlands). […] Remaining streptavidin was blocked with biocytin. Immobilization was performed at 4° C. Subsequent assay steps were conducted at 22° C. After changing buffer to Biacore buffer with 1% (v/v) dimethylsulfoxide (DMSO), a pre-run was performed for a period of at least 30 min at a flow rate of 30 μl/min to obtain a stable surface. The kinetic constants of the compounds were determined with single cycle kinetics with five consecutive injections with an increasing compound concentration with ranges of 3.16-316 nM. […] To circumvent problems of mass transport limitation, a flow rate of 30 μl/min was used. A blank run with the same conditions was performed before the compound was injected. The SPR sensorgrams were analyzed with Biacore Evaluation Software by using a method of double referencing. First the reference channel was subtracted from the channel containing immobilized protein. Subsequently, the reference curve obtained with buffer injections was subtracted. […] Compounds that bound according to an induced fit model were fitted with a two-state reaction model. The kinetic constants (ka, […], KD) of duplicates were geometrically averaged. […] Target residence for an induced fit model was calculated as described (Tummino and Copeland, 2008).

BTK T316A = BTK T316A (Homo sapiens (Human), UniProt Q06187, T316A); test: Binding kinetics measurements (Surface Plasmon Resonance) on BTK T316A; conditions: for Kd: binding affinity by Surface Plasmon Resonance (SPR); for Tau (h) BTK T316A (Act): target residence time, SPR
Protocol: as §1

BTK C481S = BTK C481S (Homo sapiens (Human), UniProt Q06187, C481S); test: Binding kinetics measurements (Surface Plasmon Resonance) on BTK C481S; conditions: for Kd: binding affinity by Surface Plasmon Resonance (SPR); for Tau (h) BTK C418S (Act): target residence time for BTK C481S, SPR
Protocol: as §1

[2] = target: full-length wt-BTK enzyme (Homo sapiens (Human), UniProt Q06187); test: Biochemical kinase assay wt-BTK (IMAP)
Summary of the method: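 Compound and enzyme (final 1.2 nM) were pre-incubated for 1 h at RT, after which the reaction was started with 4 μM ATP plus 50 nM fluorescein-MBP substrate peptide. After 2 h in the dark, the IMAP progressive binding reagent stopped the reaction, and phosphorylation was read by fluorescence polarization.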

wt-BTK = wt-BTK (Homo sapiens (Human), UniProt Q06187); test: Binding kinetics measurements (Surface Plasmon Resonance) on wt-BTK; conditions: for Kd: binding affinity by Surface Plasmon Resonance (SPR); for Tau (h) wt-BTK (Act): target residence time, SPR
Protocol: as §1

[3] = target: full-length BTK C481S enzyme (Homo sapiens (Human), UniProt Q06187, C481S); test: Biochemical kinase assay BTK C481S (IMAP)
Summary of the method: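 IC50 values come from IMAP fluorescence polarization after quenching with progressive binding solution. The reaction ran 2 h at room temperature in the dark with 1.2 nM full-length C481S enzyme, 7 μM ATP and 50 nM fluorescein-labelled MBP-derived peptide, following a 1 h dark pre-incubation of compound with enzyme.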

[4] = system: wt-TMD8 diffuse large B-cell lymphoma cells; test: Cell proliferation assay wt-TMD8 (ATPlite, 120 hours); type: cell-based; conditions: B-cell; wt-TMD8 cells, 120 hours, ATPlite; read-out: IC50 wt-TMD8
Summary of the method: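 Readout is percentage growth from ATPlite 1Step luminescence after 5 days (120 h) compound treatment of wt-TMD8 lymphoma cells (1600/well, RPMI-1640 + 10% FBS). Time-zero signal separates growth inhibition from cell kill; 0.3% DMSO wells without compound define maximal growth.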

REC-1 T474I cell lines = test: Cell proliferation assay REC-1 BTK T474I knock-in cells (ATPlite, 72 hours); type: cell-based; conditions: Homo sapiens, Rec1; 72 hours; read-out: IC50 REC-1 T474I
Summary of the method: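 REC-1 cells carrying CRISPR knock-in mutant BTK, single-cell cloned and sequence-confirmed, were exposed to compound for 72 h and read by ATPlite luminescence. Percentage growth was calculated against the signal at the start of incubation and against untreated 0.3% DMSO wells as maximum growth.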

BTK T474S = BTK T474S (Homo sapiens (Human), UniProt Q06187, T474S); test: Binding kinetics measurements (Surface Plasmon Resonance) on BTK T474S; conditions: for residence time: SPR binding kinetics, BTK T474S, read-out: Tau (h) BTK T474S (Act), target residence time (converted); for Kd: binding affinity by Surface Plasmon Resonance (SPR)
Protocol: as §1

Chain of BTK T316A (Q06187 whole entry T316A): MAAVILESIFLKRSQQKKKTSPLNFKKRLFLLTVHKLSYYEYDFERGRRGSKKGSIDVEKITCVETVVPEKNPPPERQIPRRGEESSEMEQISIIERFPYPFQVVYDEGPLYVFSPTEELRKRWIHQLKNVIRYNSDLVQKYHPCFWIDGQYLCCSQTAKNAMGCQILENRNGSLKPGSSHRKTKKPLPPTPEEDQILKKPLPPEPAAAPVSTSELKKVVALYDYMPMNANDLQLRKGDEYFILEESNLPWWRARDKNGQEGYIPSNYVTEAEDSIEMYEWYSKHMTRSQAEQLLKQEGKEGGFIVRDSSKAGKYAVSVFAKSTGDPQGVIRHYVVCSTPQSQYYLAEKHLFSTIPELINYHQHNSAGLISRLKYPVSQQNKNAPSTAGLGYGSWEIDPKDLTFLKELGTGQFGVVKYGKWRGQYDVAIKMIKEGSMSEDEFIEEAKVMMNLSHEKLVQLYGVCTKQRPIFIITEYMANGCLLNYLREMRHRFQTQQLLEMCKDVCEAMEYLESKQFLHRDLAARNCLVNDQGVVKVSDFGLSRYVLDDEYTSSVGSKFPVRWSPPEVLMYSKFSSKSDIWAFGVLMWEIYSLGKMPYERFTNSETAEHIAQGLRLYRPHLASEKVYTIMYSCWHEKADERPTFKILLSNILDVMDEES
Chain of BTK C481S (Q06187 whole entry C481S): as the sequence (Q06187 whole entry T316A) above, with A316T, C481S counted along it
Chain of full-length BTK C481S enzyme (Q06187 whole entry C481S): as the sequence (Q06187 whole entry T316A) above, with A316T, C481S counted along it
Chain of BTK T474S (Q06187 whole entry T474S): as the sequence (Q06187 whole entry T316A) above, with A316T, T474S counted along it
Chain of full-length wt-BTK enzyme (Q06187 whole entry): as the sequence (Q06187 whole entry T316A) above, with A316T counted along it
Chain of wt-BTK (Q06187 whole entry): as the sequence (Q06187 whole entry T316A) above, with A316T counted along it
Chain of BTK T474I (Q06187 whole entry T474I): as the sequence (Q06187 whole entry T316A) above, with A316T, T474I counted along it

Compound | IC50 [1] | Kd (BTK T474I) | Tau (h) BTK T474I (Act) (BTK T474I) | Kd (BTK T316A) | Tau (h) BTK T316A (Act) (BTK T316A) | Kd (BTK C481S) | Tau (h) BTK C418S (Act) (BTK C481S) | IC50 [2] | Kd (wt-BTK) | Tau (h) wt-BTK (Act) (wt-BTK) | IC50 [3] | IC50 [4] | IC50 (REC-1 T474I cell lines) | residence time (BTK T474S) | Kd (BTK T474S)
Nc1ncc2c3c1c(-c1ccc(C(=O)Nc4cc(C(F)(F)F)ccn4)cc1)nn3[C@@H]1CCC[C@H](C1)C(=O)NCCCC/C=C/2 [Example 1] | < 100 nM | < 2 nM | 0.92 h | < 5 nM | 2.99 h | < 5 nM | 1.24 h | < 5 nM | < 5 nM | 8.77 h | < 5 nM | < 100 nM | < 100 nM |  | 
Nc1ncc2c3c1c(-c1ccc(C(=O)Nc4cc(C(F)(F)F)ccn4)cc1)nn3[C@@H]1CCC[C@H](C1)C(=O)NCCCCC/C=C/2 [Example 2] | < 100 nM | < 2 nM | 3.61 h | < 5 nM | 16.05 h |  |  | < 5 nM | < 5 nM | 4.47 h | < 5 nM | < 100 nM | < 100 nM |  | 
Nc1ncc2c3c1c(-c1ccc(C(=O)Nc4cc(C(F)(F)F)ccn4)cc1)nn3[C@@H]1CCC[C@H](C1)NC(=O)CCCC[C@H](O)/C=C/2 [Example 11] | < 100 nM | < 2 nM | 1.93 h | < 5 nM | 6.42 h |  |  | < 5 nM | < 5 nM | 5.48 h | < 5 nM | < 100 nM | 100 to 500 nM | 4.3 h | < 3 nM
Nc1ncc2c3c1c(-c1ccc(C(=O)Nc4cc(C(F)(F)F)ccn4)cc1)nn3[C@@H]1CCC[C@H](C1)NC(=O)COCCC/C=C/2 [Example 18] | < 100 nM | < 2 nM | 0.63 h | < 5 nM | 4.74 h |  |  | < 5 nM | < 5 nM | 4.53 h | < 5 nM | < 100 nM | < 100 nM | 5.15 h | < 3 nM
COc1ccc(F)cc1C(=O)NCc1ccc(-c2nn3c4c(cnc(N)c24)/C=C/COCC(=O)N[C@@H]2CCC[C@@H]3C2)cc1 [Example 52] | 100 to 1000 nM | 10 to 50 nM and < 5 nM |  |  |  |  |  | < 5 nM | < 5 nM |  | < 5 nM | < 100 nM | 500 to 10000 nM | 1.35 h | < 3 nM
Nc1ncc2c3c1c(-c1ccc(C(=O)Nc4cc(C(F)(F)F)ccn4)cc1)nn3[C@@H]1CCC[C@H](C1)C(=O)NCCCCC/C=C\C2 [Example 89b] | < 100 nM | 10 to 50 nM and < 5 nM | 0.64 h | < 5 nM | 3.12 h | < 5 nM | 6.69 h | < 5 nM |  |  | < 5 nM |  |  |  | 
C[C@H]1CC(=O)N[C@@H]2CCC[C@H](C2)n2nc(-c3ccc(C(=O)Nc4cc(C(F)(F)F)ccn4)cc3)c3c(N)ncc(c32)/C=C/CCO1 [Example 156] | < 100 nM | 10 to 50 nM and < 5 nM |  |  | 1.05 h |  |  | < 5 nM |  |  | < 5 nM | < 100 nM | < 100 nM | 1.06 h | < 3 nM
N#Cc1ccnc(NC(=O)c2ccc(-c3nn4c5c(cnc(N)c35)/C=C/CCN3CC[C@H]3C(=O)N[C@@H]3CCC[C@@H]4C3)cc2)c1 [Example 165] | < 100 nM |  |  |  | 6.98 h |  | 1.61 h | < 5 nM |  | 3.24 h | < 5 nM | < 100 nM | < 100 nM |  | 
Nc1ncc2c3c1c(-c1ccc(C(=O)Nc4cc(C(F)(F)F)ccn4)cc1)nn3[C@@H]1CC[C@H](C1)NC(=O)[C@@H]1CCN1CC/C=C/2 [Example 174] | < 100 nM |  | 0.77 h |  | 4.98 h | < 5 nM | 3.56 h | < 5 nM |  | 1.35 h | < 5 nM | < 100 nM | < 100 nM |  | 
C[C@@H]1CC(=O)N[C@@H]2CCC[C@H](C2)c2nc(-c3ccc(C(=O)Nc4cc(C(F)(F)F)ccn4)cc3)c3c(N)ncc(n23)/C=C/CCN1 [Example 179] | < 100 nM | < 2 nM | 1.14 h |  |  | < 5 nM | 4.06 h | < 5 nM |  | 7.36 h | < 5 nM | < 100 nM | 100 to 500 nM | 3.01 h | 
C[C@@H]1CC(=O)N[C@@H]2CCC[C@H](C2)n2nc(-c3ccc(C(=O)Nc4cc(C#N)ccn4)cc3)c3c(N)ncc(c32)/C=C/CCN1 [Example 180] | < 100 nM | < 2 nM | 1.16 h |  |  |  |  | < 5 nM |  | 7.42 h | < 5 nM | < 100 nM | 100 to 500 nM | 7.27 h | 
C[C@@H]1CC(=O)N[C@@H]2CC[C@H](C2)n2nc(-c3ccc(C(=O)Nc4cc(C#N)ccn4)cc3)c3c(N)ncc(c32)/C=C/CCN1 [Example 181] | < 100 nM |  |  |  |  |  |  | < 5 nM |  | 2.95 h | < 5 nM | < 100 nM | 500 to 10000 nM | 5.65 h | 
N#Cc1ccnc(NC(=O)c2ccc(-c3nn4c5c(cnc(N)c35)/C=C/CCCCCC(=O)N[C@@H]3CC[C@@H]4C3)cc2)c1 [Example 182] | < 100 nM |  | 1.07 h |  |  |  |  | < 5 nM |  | 2.96 h | < 5 nM | < 100 nM | < 100 nM | 1.03 h | 
N#Cc1ccnc(NC(=O)c2ccc(-c3nn4c5c(cnc(N)c35)/C=C/COCCC(=O)N[C@@H]3CC[C@@H]4C3)cc2)c1 [Example 183] | < 100 nM |  | >24 h |  |  | < 5 nM | 4.15 h | < 5 nM |  | >24 h | < 5 nM | < 100 nM | < 100 nM | > 24 h | < 5 nM
COc1ccc(F)cc1C(=O)NCc1ccc(-c2nn3c4c(cnc(N)c24)/C=C/CCCCCC(=O)N[C@@H]2CCC[C@@H]3C2)cc1 [Example 187] | < 100 nM |  | 2.13 h |  |  |  |  | < 5 nM |  | 18.83 h | < 5 nM | < 100 nM | 100 to 500 nM | 13.6 h | < 5 nM
C[C@@H]1CC(=O)N[C@@H]2CC[C@H](C2)c2nc(-c3ccc(C(=O)Nc4cc(C(F)(F)F)ccn4)cc3)c3c(N)ncc(n23)/C=C/CCN1 [Example 207] | < 100 nM | < 2 nM |  |  |  | < 5 nM | 8.44 h | < 5 nM | < 5 nM | 2.55 h | < 5 nM | < 100 nM | 500 to 10000 nM |  | 
